pIC50: −log10 of the molar value.

This note sets out measurements from US10173991B2, “Sulfone amide linked benzothiazole inhibitors of endothelial lipase” (BRISTOL-MYERS SQUIBB COMPANY, priority 2014, dated 2019).

Sequence of Endothelial lipase (EL) (Q9Y5X9 21-500): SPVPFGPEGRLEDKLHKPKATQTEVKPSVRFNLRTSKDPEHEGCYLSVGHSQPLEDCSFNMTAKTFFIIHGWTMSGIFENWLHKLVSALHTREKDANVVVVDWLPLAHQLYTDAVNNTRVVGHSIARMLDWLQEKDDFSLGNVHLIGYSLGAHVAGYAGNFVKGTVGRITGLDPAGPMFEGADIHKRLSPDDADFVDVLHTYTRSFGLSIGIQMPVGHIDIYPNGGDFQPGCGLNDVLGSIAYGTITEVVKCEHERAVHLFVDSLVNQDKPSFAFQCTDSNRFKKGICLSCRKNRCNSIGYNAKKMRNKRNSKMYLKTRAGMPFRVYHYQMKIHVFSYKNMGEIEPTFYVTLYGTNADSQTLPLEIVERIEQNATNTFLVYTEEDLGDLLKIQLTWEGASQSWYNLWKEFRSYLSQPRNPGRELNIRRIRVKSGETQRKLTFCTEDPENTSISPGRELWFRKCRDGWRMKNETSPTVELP

The assay has as its target Endothelial lipase (EL) (Homo sapiens (Human), UniProt Q9Y5X9). Kind of assay: Endothelial lipase (EL) enzymatic assay with fluorescent substrate A10070 in DMPG vesicles. It is filed as biochemical. The procedure, abridged: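 Compounds were preincubated with enzyme for 30 min at 37° C before FRET-substrate vesicles (A10070 in DMPG, 0.11 mole fraction) were added. Reaction rates were obtained from the 300–900 sec slope of fluorescence at 490/530 nm.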
`COCCS(=O)(=O)C(C(=O)NCC(=O)NC1CC1)c1nc2cc(C(F)(F)F)c(-c3cnnc(C)c3)cc2s1` (stereo not drawn) [Example 187, N-[(cyclopropyl-carbamoyl)methyl]-2-(2-methoxyethane-sulfonyl)-2-[6-(6-methylpyridazin-4-yl)-5-(trifluoromethyl)-1,3-benzothiazol-2-yl]acetamide]: the negative-log IC50 (pIC50) is 6.64.

`COCCS(=O)(=O)C(C(=O)NCC(=O)NC1CC1)c1nc2cc(C(F)(F)F)c(-c3ccc(=O)n(C(C)C)c3)cc2s1` (stereo not drawn) [Example 188, N-[(cyclopropyl-carbamoyl)methyl]-2-(2-methoxyethane-sulfonyl)-2-{6-[6-oxo-1-(propan-2-yl)-1,6-dihydropyridin-3-yl]-5-(trifluoromethyl)-1,3-benzothiazol-2-yl}acetamide] had a pIC50 of 7.43.

`COCCS(=O)(=O)C(C(=O)NCC(=O)NC1CC1)c1nc2cc(C)c(-c3ccc4c(=O)n(C)ccc4c3)cc2s1` (stereo not drawn) [Example 189, N-[(cyclopropyl-carbamoyl)methyl]-2-(2-methoxyethane-sulfonyl)-2-[5-methyl-6-(2-methyl-1-oxo-1,2-dihydro-isoquinolin-6-yl)-1,3-benzothiazol-2-yl]acetamide] had a pIC50 of 8.40.

Take `CS(=O)(=O)C(C(=O)NCC(=O)NC1CC1)c1nc2cc(F)c(-c3ccc(F)nc3)cc2s1` (stereo not drawn) [Example 190, N-[(cyclopropyl-carbamoyl)methyl]-2-[5-fluoro-6-(6-fluoropyridin-3-yl)-1,3-benzothiazol-2-yl]-2-methanesulfonyl-acetamide]: the pIC50 was 7.80.

Compound `Cc1ccc(-c2cc3sc(C(C(=O)NCC(=O)NC4CC4)S(C)(=O)=O)nc3cc2F)cn1` (stereo not drawn) [Example 191, N-[(cyclopropyl-carbamoyl)methyl]-2-[5-fluoro-6-(6-methylpyridin-3-yl)-1,3-benzothiazol-2-yl]-2-methanesulfonyl-acetamide] showed a pIC50 of 8.05.

As to `CS(=O)(=O)C(C(=O)NCC(=O)NC1CC1)c1nc2cc(F)c(-c3cnc(C4CC4)nc3)cc2s1` (stereo not drawn) [Example 192, N-[(cyclopropyl-carbamoyl)methyl]-2-[6-(2-cyclopropyl-pyrimidin-5-yl)-5-fluoro-1,3-benzothiazol-2-yl]-2-methanesulfonyl-acetamide], the pIC50 was 7.60.

In turn, `Cn1ccc2cc(-c3cc4sc(C(C(=O)NCC(=O)NC5CC5)S(C)(=O)=O)nc4cc3F)ccc2c1=O` (stereo not drawn) [Example 193, N-[(cyclopropyl-carbamoyl)methyl]-2-[5-fluoro-6-(2-methyl-1-oxo-1,2-dihydro-isoquinolin-6-yl)-1,3-benzothiazol-2-yl]-2-methanesulfonyl-acetamide] gave a pIC50 of 8.30.

Consider `Cc1ncc(-c2cc3sc(C(C(=O)NCC(=O)NC4CC4)S(C)(=O)=O)nc3cc2F)cn1` (stereo not drawn) [Example 194, N-[(cyclopropyl-carbamoyl)methyl]-2-[5-fluoro-6-(2-methylpyrimidin-5-yl)-1,3-benzothiazol-2-yl]-2-methanesulfonyl-acetamide], for which the pIC50 was 7.47.

As for `CC(C)n1cc(-c2cc3sc(C(C(=O)NCC(=O)NC4CC4)S(C)(=O)=O)nc3cc2F)ccc1=O` (stereo not drawn) [Example 195, N-[(cyclopropyl-carbamoyl)methyl]-2-{5-fluoro-6-[6-oxo-1-(propan-2-yl)-1,6-dihydropyridin-3-yl]-1,3-benzothiazol-2-yl}-2-methanesulfonyl-acetamide], the pIC50 was 7.64.

On to `Cn1ncc2ccc(-c3cc4sc(C(C(=O)NCC(=O)NC5CC5)S(C)(=O)=O)nc4cc3F)cc21` (stereo not drawn) [Example 196, N-[(cyclopropyl-carbamoyl)methyl]-2-[5-fluoro-6-(1-methyl-1H-indazol-6-yl)-1,3-benzothiazol-2-yl]-2-methanesulfonyl-acetamide], for which the pIC50 is 9.00.

As to `CS(=O)(=O)C(C(=O)NCC(=O)NC1CC1)c1nc2cc(F)c(-c3ccc4[nH]c(=O)ccc4c3)cc2s1` (stereo not drawn) [Example 197, N-[(cyclopropyl-carbamoyl)methyl]-2-[5-fluoro-6-(2-oxo-1,2-dihydroquinolin-6-yl)-1,3-benzothiazol-2-yl]-2-methanesulfonyl-acetamide], the pIC50 was 8.52.

`COCCS(=O)(=O)C(C(=O)NCC(=O)NC1CC1)c1nc2cc(F)c(-c3ccc4cnn(C)c4c3)cc2s1` (stereo not drawn) [Example 198, N-[(cyclopropyl-carbamoyl)methyl]-2-[5-fluoro-6-(1-methyl-1H-indazol-6-yl)-1,3-benzothiazol-2-yl]-2-(2-methoxyethane-sulfonyl) acetamide] had a negative-log IC50 (pIC50) of 8.30.

In turn, `CS(=O)(=O)C(C(=O)NCC(=O)NC1CC1)c1nc2cc(F)c(-c3ccc(C#N)nc3)cc2s1` (stereo not drawn) [Example 199, 2-[6-(6-cyanopyridin-3-yl)-5-fluoro-1,3-benzothiazol-2-yl]-N-[(cyclopropyl-carbamoyl)methyl]-2-methanesulfonyl-acetamide] gave a pIC50 of 7.62.

In the case of `CS(=O)(=O)C(C(=O)NCC(=O)NC1CC1)c1nc2cc(F)c(-c3ccc(-n4ccccc4=O)cc3)cc2s1` (stereo not drawn) [Example 200, N-[(cyclopropyl-carbamoyl)methyl]-2-{5-fluoro-6-[4-(2-oxo-1,2-dihydropyridin-1-yl)phenyl]-1,3-benzothiazol-2-yl}-2-methanesulfonyl-acetamide], the pIC50 was 8.10.

`CS(=O)(=O)C(C(=O)NCC(=O)NC1CC1)c1nc2cc(F)c(-c3ccc(N4CCCCC4=O)cc3)cc2s1` (stereo not drawn) [Example 201, N-[(cyclopropyl-carbamoyl)methyl]-2-{5-fluoro-6-[4-(2-oxopiperidin-1-yl)phenyl]-1,3-benzothiazol-2-yl}-2-methanesulfonyl-acetamide]: the pIC50 was 8.00.

`CS(=O)(=O)C(C(=O)NCC(=O)NC1CC1)c1nc2cc(F)c(-c3cnc(-c4ccccc4)nc3)cc2s1` (stereo not drawn) [Example 202, N-[(cyclopropyl-carbamoyl)methyl]-2-[5-fluoro-6-(2-phenylpyrimidin-5-yl)-1,3-benzothiazol-2-yl]-2-methanesulfonyl-acetamide] gave a pIC50 of 8.30.

As to `CS(=O)(=O)C(C(=O)NCC(=O)NC1CC1)c1nc2cc(F)c(-c3ccc(-c4ccccc4)nc3)cc2s1` (stereo not drawn) [Example 203, N-[(cyclopropyl-carbamoyl)methyl]-2-[5-fluoro-6-(6-phenylpyridin-3-yl)-1,3-benzothiazol-2-yl]-2-methanesulfonyl-acetamide], the pIC50 is 8.52.

On to `Cc1cc2nc(C(C(=O)NCC(=O)NC3CC3)S(=O)(=O)C(C)C)sc2cc1-c1ccc2[nH]c(=O)ccc2c1` (stereo not drawn) [Example 204, N-[(cyclopropyl-carbamoyl)methyl]-2-[5-methyl-6-(2-oxo-1,2-dihydroquinolin-6-yl)-1,3-benzothiazol-2-yl]-2-(propane-2-sulfonyl) acetamide], for which the pIC50 was 8.70.

In the case of `O=C(CNC(=O)C(c1nc2ccc(-c3ccc(OCC4CC4)nc3)cc2s1)S(=O)(=O)Cc1ccc(F)cc1)NC1CC1` (stereo not drawn) [Example 205, N-[(cyclopropyl-carbamoyl)methyl]-2-{6-[6-(cyclopropyl-methoxy)pyridin-3-yl]-1,3-benzothiazol-2-yl}-2[(4-fluorophenyl)methanesulfonyl] acetamide], the pIC50 is 8.10.

`COCCS(=O)(=O)C(C(=O)NCC(=O)NC1CC1)c1nc2c(F)cc(-c3cnc(OC)c(F)c3)cc2s1` (stereo not drawn) [Example 206, N-[(cyclopropyl-carbamoyl)methyl]-2-[4-fluoro-6-(5-fluoro-6-methoxypyridin-3-yl)-1,3-benzothiazol-2-yl]-2-(2-methoxyethane-sulfonyl) acetamide]: the pIC50 was 8.05.

`Cc1cc2nc(C(C(=O)NCC(=O)NC3CC3)S(=O)(=O)C(C)C)sc2cc1-c1ccc(=O)n(C(C)C)c1` (stereo not drawn) [Example 207, N-[(cyclopropyl-carbamoyl)methyl]-2-{5-methyl-6-[6-oxo-1-(propan-2-yl)-1,6-dihydropyridin-3-yl]-1,3-benzothiazol-2-yl}-2-(propane-2-sulfonyl) acetamide] gave a pIC50 of 8.00.

Compound `COCCS(=O)(=O)C(C(=O)NCC(=O)NC1CC1)c1nc2c(F)cc(-c3ccc(C(=O)N4CCOCC4)cc3)cc2s1` (stereo not drawn) [Example 208, N-[(cyclopropyl-carbamoyl)methyl]-2-{4-fluoro-6-[4-(morpholine-4-carbonyl)phenyl]-1,3-benzothiazol-2-yl}-2-(2-methoxyethane-sulfonyl) acetamide] showed a pIC50 of 7.96.

The compound `Cc1cc2nc(C(C(=O)NCC(=O)NC3CC3)S(=O)(=O)C(C)C)sc2cc1-c1ccc(C(F)(F)F)nc1` (stereo not drawn) [Example 209, N-[(cyclopropyl-carbamoyl)methyl]-2-{5-methyl-6-[6-(trifluoromethyl)pyridin-3-yl]-1,3-benzothiazol-2-yl}-2-(propane-2-sulfonyl) acetamide] showed a pIC50 of 7.96.

`COCCNC(=O)c1cccc(-c2cc3sc(C(C(=O)NCC(=O)NC4CC4)S(=O)(=O)C(C)C)nc3cc2C)c1` (stereo not drawn) [Example 210, 3-[2-({[(cyclopropyl-carbamoyl)methyl]carbamoyl} (propane-2-sulfonyl)methyl)-5-methyl-1,3-benzothiazol-6-yl]-N-(2-methoxyethyl) benzamide] had a pIC50 of 7.92.

Turning to `COc1ncc(-c2cc3sc(C(C(=O)NCC(=O)NC4CC4)S(=O)(=O)C(C)C)nc3cc2C)cc1F` (stereo not drawn) [Example 211, N-[(cyclopropyl-carbamoyl)methyl]-2-[6-(5-fluoro-6-methoxypyridin-3-yl)-5-methyl-1,3-benzothiazol-2-yl]-2-(propane-2-sulfonyl) acetamide], the pIC50 was 7.85.

The compound `Cc1ncc(-c2cc3sc(C(C(=O)NCC(=O)NC4CC4)S(=O)(=O)C(C)C)nc3cc2C)cn1` (stereo not drawn) [Example 212, N-[(cyclopropyl-carbamoyl)methyl]-2-[5-methyl-6-(2-methylpyrimidin-5-yl)-1,3-benzothiazol-2-yl]-2-(propane-2-sulfonyl) acetamide] showed a pIC50 of 7.82.

On to `O=C(CNC(=O)C(c1nc2ccc(-c3ccc(C(=O)N4CCOCC4)cc3)cc2s1)S(=O)(=O)Cc1ccc(F)cc1)NC1CC1` (stereo not drawn) [Example 213, N-[(cyclopropyl-carbamoyl)methyl]-2-[(4-fluorophenyl)methanesulfonyl]-2-{6-[4-(morpholine-4-carbonyl)phenyl]-1,3-benzothiazol-2-yl}acetamide], for which the pIC50 was 7.82.

Usually pIC50 stands for −log10 of the IC50, conventionally taken in molar units. The low end stands for a large IC50, the high end for a small IC50.
